Reference: ChEMBL document CHEMBL1130277, “Three-dimensional quantitative structure-activity relationships from molecular similarity matrices and genetic neural networks. 2. Applications” (J Med Chem, 1997)

Each compound was assayed against Acetylcholinesterase (Homo sapiens, UniProt P22303).
Acetylcholinesterase, sequence (P22303 whole entry): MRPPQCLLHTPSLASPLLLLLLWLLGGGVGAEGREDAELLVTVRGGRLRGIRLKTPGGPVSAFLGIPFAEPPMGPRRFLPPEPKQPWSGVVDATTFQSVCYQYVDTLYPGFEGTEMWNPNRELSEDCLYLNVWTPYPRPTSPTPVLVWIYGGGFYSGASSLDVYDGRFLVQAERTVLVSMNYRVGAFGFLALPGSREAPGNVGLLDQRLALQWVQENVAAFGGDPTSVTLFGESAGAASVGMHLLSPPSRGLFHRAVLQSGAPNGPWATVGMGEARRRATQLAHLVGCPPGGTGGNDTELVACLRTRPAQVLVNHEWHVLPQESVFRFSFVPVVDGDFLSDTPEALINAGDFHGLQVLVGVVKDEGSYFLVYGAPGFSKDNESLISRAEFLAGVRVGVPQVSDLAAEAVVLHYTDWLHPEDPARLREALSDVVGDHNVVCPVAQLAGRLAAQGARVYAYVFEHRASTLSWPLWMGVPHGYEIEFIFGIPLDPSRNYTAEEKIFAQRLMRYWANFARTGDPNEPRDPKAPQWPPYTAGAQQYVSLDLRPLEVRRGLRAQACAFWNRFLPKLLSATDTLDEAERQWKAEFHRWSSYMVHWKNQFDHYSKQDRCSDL
Description: Inhibition acetylcholinesterase (AChE) enzyme.

Compound	IC50
CCOCC[N+](C)(C)C	1160 µM
C=CCC[N+](C)(C)C	847 µM
C=CC[N+](C)(C)C	2920 µM
C[N+](C)(C)CCS	440 µM
COc1cccc([N+](C)(C)C)c1	597 µM
CCCCCC[N+](C)(C)C	817 µM
CCC(=O)Oc1cccc([N+](C)(C)C)c1	5.97 µM
CCSCC[N+](C)(C)C	1510 µM
CCC(=O)Oc1ccc(C)c([N+](C)(C)C)c1	69 µM
CCC(=O)Oc1cccc([N+](C)(C)C)c1C	753 µM
CC(=O)Oc1cccc([N+](C)(C)C)c1C	40.8 µM
COc1ccc(C)c([N+](C)(C)C)c1	345 µM
CC(=O)CCC[N+](C)(C)C	84.7 µM
CC(=O)Nc1cccc([N+](C)(C)C)c1	1000 µM
Cc1ccc([N+](C)(C)C)cc1O	3.11 µM
Cc1ccc(O)cc1[N+](C)(C)C	2.82 µM
CCC(=O)Oc1cc([N+](C)(C)C)ccc1C	3.77 µM
COc1cc([N+](C)(C)C)ccc1C	122 µM
C[N+]1(C)CCO[C@@](O)(c2ccc(N)cc2)C1	690 µM
CC(=O)Oc1cc([N+](C)(C)C)ccc1C	0.659 µM
C[N+](C)(C)CCCBr	87.9 µM
CCCC(=O)SCC[N+](C)(C)C	126 µM

Compound	IC50
C=CCCC[N+](C)(C)C	1130 µM
C[N+](C)(C)c1cccc(N)c1	192 µM
C[N+]1(C)CCO[C@@](O)(c2ccc(C#N)cc2)C1	11600 µM
COc1cccc([N+](C)(C)C)c1C	239 µM
C[N+]1(C)CCO[C@@](O)(c2ccc(Cl)cc2)C1	8130 µM
C[N+](C)(C)CCCCI	471 µM
CC(=O)Oc1ccc(C)c([N+](C)(C)C)c1	5.33 µM
C[N+](C)(C)CCCl	2390 µM
CC(=O)Nc1ccc([C@@]2(O)C[N+](C)(C)CCO2)cc1	2070 µM
CCCC(=O)OCC[N+](C)(C)C	229 µM
C[C@@]1(O)C[N+](C)(C)CCO1	1730 µM
Cc1c(O)cccc1[N+](C)(C)C	141 µM
CC(=O)Oc1cccc([N+](C)(C)C)c1	3.01 µM
C[N+](C)(C)CCCCCBr	535 µM
C[N+]1(C)CCO[C@@](O)(C(F)(F)F)C1	3830 µM
C[N+](C)(C)CCCCBr	597 µM
C[N+]1(C)CCO[C@H](O)C1	1760 µM
C[N+](C)(C)c1cccc(O)c1	0.973 µM
CC(C)(C)[C@@]1(O)C[N+](C)(C)CCO1	3710 µM
C[N+](C)(C)c1cccc([N+](=O)[O-])c1	628 µM
C[N+]1(C)CCO[C@@](O)(c2ccc([N+](=O)[O-])cc2)C1	5120 µM

The compounds below were run against T1, Aryl hydrocarbon receptor (Homo sapiens, UniProt P35869).
T1 sequence (P35869 whole entry): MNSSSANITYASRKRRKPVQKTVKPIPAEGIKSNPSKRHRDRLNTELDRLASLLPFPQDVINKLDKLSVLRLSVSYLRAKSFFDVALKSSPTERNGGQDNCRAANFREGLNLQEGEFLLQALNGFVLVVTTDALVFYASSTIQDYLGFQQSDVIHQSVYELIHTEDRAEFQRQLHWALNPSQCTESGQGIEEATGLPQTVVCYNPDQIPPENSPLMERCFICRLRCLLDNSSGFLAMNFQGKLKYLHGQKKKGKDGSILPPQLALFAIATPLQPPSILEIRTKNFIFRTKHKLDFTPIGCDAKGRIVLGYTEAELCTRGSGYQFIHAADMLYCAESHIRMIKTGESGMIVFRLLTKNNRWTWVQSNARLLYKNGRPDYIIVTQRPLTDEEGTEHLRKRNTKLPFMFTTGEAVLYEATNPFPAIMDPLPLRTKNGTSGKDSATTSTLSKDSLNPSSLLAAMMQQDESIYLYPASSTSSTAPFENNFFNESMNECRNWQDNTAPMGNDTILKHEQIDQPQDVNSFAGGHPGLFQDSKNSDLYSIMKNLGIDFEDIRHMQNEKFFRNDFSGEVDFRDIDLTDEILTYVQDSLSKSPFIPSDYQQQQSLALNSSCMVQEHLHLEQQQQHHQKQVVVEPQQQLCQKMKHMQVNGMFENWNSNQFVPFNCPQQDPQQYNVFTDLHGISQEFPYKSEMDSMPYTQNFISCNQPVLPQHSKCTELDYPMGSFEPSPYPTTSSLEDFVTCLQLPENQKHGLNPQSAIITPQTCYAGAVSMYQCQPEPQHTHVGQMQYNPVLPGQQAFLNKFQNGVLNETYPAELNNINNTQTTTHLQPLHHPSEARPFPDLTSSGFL
Description: Affinity on cytosolic Aromatic hydrocarbon receptor (Ah)

Compound	EC50
Clc1cc(Cl)c2c(c1)oc1cc(Cl)c(Cl)c(Cl)c12	0.4 µM
Clc1cc2oc3c(Cl)cccc3c2c(Cl)c1Cl	0.35 µM
Brc1cc(Br)c2c(c1)Oc1cc(Br)cc(Br)c1O2	0.0929 µM
Brc1ccc2c(c1)Oc1ccc(Br)cc1O2	0.0155 µM
Clc1cc2c(cc1Cl)Oc1c(Cl)c(Cl)c(Cl)c(Cl)c1O2	0.28 µM
Clc1cc(-c2ccc(Cl)c(Cl)c2Cl)cc(Cl)c1Cl	5 µM
Clc1cc(Cl)c(-c2cc(Cl)c(Cl)c(Cl)c2)cc1Cl	16 µM
Clc1cc2c(cc1Cl)Oc1c(Cl)cccc1O2	0.22 µM
Clc1cc(Cl)c2c(c1)Oc1cc(Cl)c(Cl)cc1O2	0.794 µM
Clc1ccc2c(c1)Oc1cc(Cl)c(Cl)cc1O2	0.071 µM
Clc1cc2oc3c(Cl)cc(Cl)c(Cl)c3c2cc1Cl	1.3 µM
Clc1cc2c(cc1Cl)Oc1cc(Br)c(Br)cc1O2	0.00148 µM
Brc1ccc2c(c1)Oc1cc(Br)c(Br)cc1O2	0.00117 µM
Clc1c(Cl)c(Cl)c2c(c1Cl)Oc1c(Cl)c(Cl)c(Cl)c(Cl)c1O2	10 µM
Clc1ccc(-c2cc(Cl)c(Cl)c(Cl)c2Cl)cc1Cl	7.1 µM
Clc1ccc2oc3c(Cl)cc(Cl)c(Cl)c3c2c1	10 µM
Clc1cc(Cl)c2c(c1Cl)Oc1ccccc1O2	13 µM
Clc1cc2oc3cc(Cl)c(Cl)cc3c2cc1Cl	0.041 µM
Clc1ccc2c(c1)oc1cc(Cl)c(Cl)c(Cl)c12	0.219 µM
Clc1ccc2c(oc3c(Cl)cc(Cl)c(Cl)c32)c1Cl	0.0678 µM
Clc1cc2c(oc3c(Cl)cccc32)c(Cl)c1Cl	0.35 µM
Clc1cc(Cl)c2oc3cc(Cl)c(Cl)cc3c2c1	0.22 µM

Compound	EC50
Clc1cc2c(oc3c(Cl)cc(Cl)c(Cl)c32)c(Cl)c1Cl	8.3 µM
Clc1cc(Cl)c2oc3c(Cl)cc(Cl)c(Cl)c3c2c1	3.1 µM
Brc1cc(Br)c2c(c1)Oc1cc(Br)c(Br)cc1O2	0.002 µM
Clc1cc2c(cc1Cl)Oc1c(cc(Cl)c(Cl)c1Cl)O2	0.0794 µM
Clc1ccc(-c2cc(Cl)c(Cl)cc2Cl)cc1Cl	9.1 µM
Clc1cc2oc3cc(Cl)c(Cl)c(Cl)c3c2cc1Cl	0.0741 µM
Clc1cc2c(cc1Br)Oc1cc(Br)c(Cl)cc1O2	0.000447 µM
Clc1cc(Cl)c2c(c1)oc1c(Cl)cc(Cl)c(Cl)c12	20 µM
Clc1ccc2oc3c(Cl)c(Cl)c(Cl)cc3c2c1	0.2 µM
Clc1cccc2c1Oc1ccccc1O2	100 µM
Clc1ccc(-c2cc(Cl)c(Cl)c(Cl)c2)c(Cl)c1	14.1 µM
Brc1cc2c(cc1Br)Oc1c(cc(Br)c(Br)c1Br)O2	0.00661 µM
Clc1ccc(-c2cc(Cl)c(Cl)c(Cl)c2)cc1	28 µM
Clc1cc2c(cc1Cl)Oc1c(ccc(Cl)c1Cl)O2	0.16 µM
Clc1cc(Cl)c2c(c1)oc1c(Cl)cccc12	4.37 µM
Clc1cc2c(cc1Cl)Oc1cc(Br)c(Cl)cc1O2	0.0115 µM
Clc1cc(Cl)c(-c2cc(Cl)c(Cl)c(Cl)c2)c(Cl)c1	99.1 µM
Brc1ccc2c(c1)Oc1ccccc1O2	0.295 µM
Clc1cccc2c1oc1ccccc12	1000 µM
Clc1ccc2c(c1)oc1ccccc12	42 µM
Clc1cc(-c2ccccc2)c(Cl)c(Cl)c1Cl	140 µM
Clc1ccc(-c2cc(Cl)c(Cl)c(Cl)c2Cl)cc1	4.1 µM

Compound	EC50
Clc1cc(Cl)c2c(c1)oc1c(Cl)c(Cl)c(Cl)cc12	0.2 µM
Clc1cc2oc3c(Cl)c(Cl)c(Cl)cc3c2cc1Cl	0.0151 µM
Clc1ccc2c(c1)oc1c(Cl)c(Cl)c(Cl)cc12	0.0251 µM
Clc1cc2c(cc1Cl)Oc1c(Cl)c(Cl)cc(Cl)c1O2	1.1 µM
Clc1ccc2c(c1)Oc1c(Cl)c(Cl)c(Cl)c(Cl)c1O2	6.46 µM
Clc1cc(Cl)c2c(c1)oc1ccc(Cl)cc12	85.1 µM
Clc1ccc(-c2ccc(Cl)c(Cl)c2Cl)cc1Cl	4.27 µM
Brc1cc2c(cc1Br)Oc1cc(Br)c(Br)cc1O2	0.0015 µM
Clc1ccc2c(c1)Oc1cc(Cl)ccc1O2	3.2 µM
Clc1cc2oc3c(Cl)c(Cl)cc(Cl)c3c2cc1Cl	0.2 µM
Clc1cc2oc3c(Cl)c(Cl)c(Cl)c(Cl)c3c2cc1Cl	0.23 µM
Clc1cc2c(oc3c(Cl)c(Cl)c(Cl)cc32)c(Cl)c1Cl	0.0468 µM
Clc1cc2c(oc3cc(Cl)c(Cl)c(Cl)c32)c(Cl)c1Cl	0.27 µM
Clc1c(Cl)c(Cl)c2c(c1Cl)Oc1ccccc1O2	1.3 µM
Clc1ccc(-c2ccc(Cl)c(Cl)c2)cc1Cl	0.71 µM
Clc1ccc2oc3c(Cl)c(Cl)c(Cl)c(Cl)c3c2c1	0.12 µM
Brc1cc2c(cc1Br)Oc1c(Br)c(Br)cc(Br)c1O2	0.017 µM
Clc1cc(Cl)c(-c2cc(Cl)c(Cl)cc2Cl)cc1Cl [2,2',4,4',5,5'-HEXACHLOROBIPHENYL]	79.4 µM
Clc1cc2c(cc1Cl)Oc1cc(Cl)c(Cl)cc1O2 [2,3,7,8-TETRACHLORODIBENZO-P-DIOXIN]	0.01 µM
Clc1ccc(-c2cc(Cl)c(Cl)c(Cl)c2)cc1Cl [POLYCHLORINATED BIPHENYL 126]	0.13 µM

Each compound was assayed against GABA-A receptor; anion channel.
Description: Inhibition on Benzodiazepine receptor

pIC50	Compound
7.03	CC(C)COc1cc2c(cn1)[nH]c1ccccc12
6.45	CC(C)(C)C(=O)c1cc2c3ccccc3nc-2c[nH]1
8.4	c1ccc2c(c1)[nH]c1c2ncc2[nH]c3ccccc3c21
8	CC(C)(C)OC(=O)c1cc2c3ccccc3nc-2c[nH]1
10	COc1ccc(-n2nc3c4ccccc4[nH]cc-3c2=O)cc1
5.12	CCc1nc(C(=O)OC)cc2c1[nH]c1ccccc12
7.35	Clc1cc2c(cn1)[nH]c1ccccc12
5.71	c1ccc2c(c1)[nH]c1c2ccc2[nH]c3ccccc3c21
5.77	CCOC(=O)c1cc2c(cn1)sc1ccccc12
7.17	Cc1cccc2c1[nH]c1c3c4ccccc4nc-3c[nH]c12
6.8	Cn1c2ccccc2c2[nH]cc3nc4ccccc4c-3c21
5.07	CCOC(=O)c1cc2c(cn1)oc1ccccc12
6.33	CCC(C)Oc1cc2c3ccccc3nc-2c[nH]1 (configuration not stated)
6	c1ccc(COc2cc3c4ccccc4nc-3c[nH]2)cc1

Compound	pIC50
CCCC(=O)c1cc2c(cn1)[nH]c1ccccc12	7.64
